# Measurements taken from patent publication US8828950B2, “Caspase inhibitors in the treatment of infection-associated preterm delivery” (Cedars-Sinai Medical Center, priority 2007, dated 2014).
# “Also recorded” adds a separate entry of the source. Residues, ends and D or L forms follow the SMILES beside them. *: point of attachment. Cbz = O=C(OCc1ccccc1)*; CH2F = FC*
# Assays:
# [1] = tested on: pregnant mice injected with LPS; assay: LPS-induced pup mortality/abortion in pregnant Cox2/luciferase mice (bioluminescence imaging); type: in vivo, mouse; conditions: for pup (fetal) mortality / abortion after LPS: 0.25 mg ip 5-30 minutes prior to each ip LPS injection, 14 day pregnant mouse
# Excerpt: Therefore, the use of caspase inhibitors confers a protective effect not seen by merely controlling infection through the use of antibiotics. As one of skill in the art will realize that the murine model can provide a guide to expected outcomes in human pregnancy, it is believed that caspase inhibitor treatment will be effective in the treatment of pregnant women with intrauterine infection so as to prevent preterm delivery and improve pregnancy outcome. This is a novel mammalian model for the improvement of pregnancy outcome.
# Our experimental test method is based on the use of a mouse model in which inflammation (as assessed by Cox2 promoter activation) is detected optically by using a transgenic animal in which activation of the promoter results in synthesis of luciferase. When luciferin is subsequently injected, the presence of luciferase is detected by a sensitive camera as the production of light. The detected inflammation is indicative of the infection caused by the LPS injection.
# In FIG. 1, pregnant mice are imaged. The mice were first mated with Cox2/luciferase males so that the pups would be positive for the Cox2/luciferase construct. The mice were treated with LPS which is normally produced by bacteria and results in inflammation. We injected pregnant mice with 0.1 microgram/ml LPS intraperitoneally (ip) for the control mice 0-24 hours (using a 2, 4, 6, 12 hour time course) prior to the imaging. The resulting inflammation causes the upregulation of Cox2 promoter in the pups resulting in the synthesis of luciferase. […] The treatment mice were given 0.25 mg ip of the pancaspase inhibitor 5-30 minutes prior to each LPS injection.
# In the case of the control mouse (right-hand side of FIG. 1) inflammation results in the abortion of the pups (no bioluminescence detected). […] Thus, in the case of inflammation resulting from infection (as is common in cases of preterm delivery in humans) effective treatment includes antibiotic to reduce or eliminate the infection and caspase inhibitor to prevent preterm delivery.
# [2] = tested on: pregnant CD1 mice injected with HK-GBS; assay: HK-GBS-induced preterm delivery in day 14.5 pregnant CD1 mice; type: in vivo, mouse
# Experimental: To assess whether caspase inhibition prevented HK-GBS-induced preterm delivery, unanesthetized day 14.5 pregnant CD1 mice (Harlan Laboratories, Madison, Wis.), which breed more effectively than inbred C57BL/6J mice, were pre-treated intraperitoneally with PBS, DMSO or the pancaspase inhibitor Z-VAD-FMK (10 mg/kg) 30 minutes prior to intraperitoneal injection with either 10^9 HK-GBS bacteria or medium. There were no differences in delivery outcomes following intraperitoneal injection with GBS whether or not animals were pretreated with either PBS or DMSO (diluents for the caspase inhibitor). Therefore these separate control pre-treatments are combined for the analyses.
# Chi-square analysis was done to assess the effect of Z-VAD-FMK pretreatment on HK-GBS-induced preterm delivery.
# Based upon that observation, we hypothesized that the generalized inhibition of caspases would prevent microbial antigen-induced preterm delivery in the mouse pregnancy model. In order to test this hypothesis we pre-treated day 14.5 pregnant CD1 mice either with Z-VAD-FMK (10 mg/kg dissolved in DMSO/PBS) or with medium intraperitoneally 30 minutes prior to intraperitoneal HK-GBS injection.
# [3] = tested on: primary human trophoblasts and fibroblasts; conditions: in vitro pretreatment; Equils et al., 2006; cited from earlier work
smiles,measurement,setting,value
"COC(=O)C[C@H](NC(=O)[C@H](C)NC(=O)[C@@H](NC(=O)OCc1ccccc1)C(C)C)C(=O)CF [Z-VAD-FMK, carbobenzoxy-valyl-alanyl-aspartyl-[O-methyl]-fluoromethylketone] (Cbz-Val-Ala-Asp(OMe)-CH2F)",pup (fetal) mortality / abortion after LPS,[1],prevents pup mortality; also recorded: the pups do not abort
same,pup (fetal) mortality / abortion after LPS,[1]; listed as Z-VAD FMK,reduces fetal mortality
same,pup (fetal) mortality / abortion after LPS,[1]; listed as pancaspase inhibitor,maintenance of pregnancy
same,inflammation as assessed by Cox2 promoter activation (bioluminescence),[1]; 0.25 mg ip prior to ip LPS injection,continued inflammation; also recorded: does not prevent inflammation
same,Delivery <18 hr (%),"[2]; 10 mg/kg ip 30 minutes prior to ip 10^9 HK-GBS, 1 of n = 6, GBS alone 12 (86%) of n = 14, p value 0.0072",1 (17%)
same,Delivery 18-24 hrs (%),"[2]; 10 mg/kg ip 30 minutes prior to ip 10^9 HK-GBS, 2 of n = 6, GBS alone 0 of n = 14, p value 0.079",2 (33%)
same,Preterm Delivery (<24 hours),"[2]; 10 mg/kg ip 30 minutes prior to ip 10^9 HK-GBS, 3 of n = 6, GBS alone 12 (86%) of n = 14, p value 0.13",3 (50%)
same,effect on HK-GBS-induced preterm delivery,"[2]; ip pre-treatment 10 mg/kg, ip HK-GBS",delayed i.p. HK-GBS-induced preterm delivery; also recorded: significantly delayed preterm delivery at 18 hours
same,cHSP60-induced apoptosis,[3],prevented Chlamydia heat shock protein (cHSP60)-induced apoptosis
